Measurements: US5451522A, “Genes encoding and method of expressing an enzyme: phthalyl amidase” (priority 1994, dated 1995)
Read-outs that look alike come from different tables or passages of the source.

Assays:
phthalyl amidase [1] = biological target: T1, phthalyl amidase (Xanthobacter agilis, UniProt P0C2Y0); assay: Influence of effectors and organic solvents on enzyme activity; type: biochemical; settings: for remaining activity at 1000 µM: read-out: % of Control Activity
T1 construct: 42-aa signal peptide removed
T1 sequence (P0C2Y0 2-453): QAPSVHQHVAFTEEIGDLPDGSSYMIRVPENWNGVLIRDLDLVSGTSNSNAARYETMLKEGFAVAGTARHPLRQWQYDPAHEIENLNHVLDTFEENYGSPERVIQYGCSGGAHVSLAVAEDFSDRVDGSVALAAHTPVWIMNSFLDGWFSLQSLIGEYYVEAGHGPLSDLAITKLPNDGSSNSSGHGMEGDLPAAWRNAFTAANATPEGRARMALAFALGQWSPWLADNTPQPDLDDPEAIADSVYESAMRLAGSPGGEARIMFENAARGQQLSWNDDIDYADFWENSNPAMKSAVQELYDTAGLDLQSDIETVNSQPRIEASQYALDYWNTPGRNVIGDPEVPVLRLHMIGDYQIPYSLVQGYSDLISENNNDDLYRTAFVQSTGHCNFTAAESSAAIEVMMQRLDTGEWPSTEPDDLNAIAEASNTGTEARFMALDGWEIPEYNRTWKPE
Protocol: A typical reaction mixture consisted of 1 ml total volume and contained 0.1 mM III, 0.1 μM phthalyl amidase in 50 mM potassium phosphate buffer (pH 5.5-9.0) at 32° C. for 20 minutes. The reactions were stopped by the addition of 1 ml methanol. After removal of precipitate by centrifugation, an aliquot of the supernatant fraction (typically 30 μ) was monitored for the beta-lactam nucleus and phthalic acid by HPLC using a Zorbax C8 column (0.46×15 cm; MacMod Analytical Inc., Chadds Ford, Pa.). The two reaction products were eluted by a mobile phase constructed as continuous mixed gradients from (a) 1% ACN (acetonitrile)/0.2% TFA (trifluoroacetic acid) and (b) 80% ACN/0.2% TFA as follows: 1) 0% (b), 3 min; 2) 0-50% (b), 0.5 min; 3) 50-100% (b), 3 min; 4) 100% (b), 2.5 min; 5) 100-0% (b), 0.1 min; and 6) 0% (b), 5 min.
The effect of various agents on the enzymatic activity of phthalyl amidase was determined using standard conditions (see Example 5). All agents were tested at 1 mM final concentration unless otherwise indicated.

phthalyl amidase [2] = biological target: T1, phthalyl amidase; assay: Substrate specificity: chemical structure requirements for enzyme activity; type: biochemical; settings: for suitability as substrate (in words): Tables 10 and 11; for Relative Activity: 2.5 μmol compound, 0.3 units enzyme
Protocol: The activity of phthalyl amidase against 25 compounds was determined. The compounds were divided into beta-lactams (Table 9), phthalyl amides (Table 10), and aromatic ring substituted amides (Table 11). Each reaction mixture (1 ml total volume) contained 2.5 μmol of compound and 0.3 units of enzyme (based on the chromogenic substrate) of the preparative scale purified enzyme, in 50 mM phosphate buffer, pH 8.0. The reactions were conducted at 30° C. Samples of the reaction mixture were taken at various times, and methanol (equal volume) was added to stop the reaction. The samples were examined by HPLC to determine the extent of substrate hydrolysis. The amount of compound hydrolyzed was calculated from a standard curve of the test compound. All substrates were stable in buffer at 30° C. and pH 8.0 in the absence of enzyme for 24 hours.

Xanthobacter agilis = assay: Induction of phthalyl amidase in Xanthobacter agilis cultures; type: cell-based; settings: Table 1 summary
Protocol: Three compounds at different concentrations were added to aerated cultures of the organism growing at 30° C. in Bac MI medium. The compounds tested were phthalate (PAA), phthalyl glycine (PAG), and PMBL. Cells of Xanthobacter agilis were grown with aeration for 24 hours. This vegetative culture was used to inoculate Bac MI medium (50 ml) containing different concentrations of the compounds to be tested. After 48 hours growth under standard conditions, cells were harvested by centrifugation and wet weight of the cells was determined. Crude cell extracts were prepared by lysozyme treatment of the cells as in Example 1. Suspensions were briefly sonicated to break up the viscous suspension. A cell-free supernatant was obtained by centrifugation of the suspension at 14,000 rpm for 15 minutes.
Enzyme activity in cell-free lysates was determined by monitoring conversion of the chromogenic substrate 4-(2'-carboxy-N-benzoyl)amino-2-carboxy-nitrobenzene (II) to 2-nitro-5-amino benzoic acid and phthalic acid, a reaction catalyzed by phthalyl amidase as shown below: [drawing 4]
The assay reaction mixture (1 ml) consisted of 0.3 μmol of the chromogenic substrate (II) and 0.001-0.5 μg of enzyme preparation in 50 mM potassium phosphate buffer, pH 8.0 (buffer A). The enzymatic reaction was conducted at 30° C. for 10 minutes and the appearance of product was monitored at 380 nm (or 430 nm). The amount of substrate hydrolyzed was calculated from a standard curve of the amine product.

[3] = agent at 1 mM final concentration
[4] = Table 11 aromatic ring substituted amides, XVII = 100.0, pH 8.0, 30° C.

Q: How did the remaining activity at 1000 µM (phthalyl amidase [1]; [3]) turn out when `O[C@H](CS)[C@H](O)CS` (racemic) [DTT, dithiothreitol] was run?
A: 100%

Q: How did the remaining activity at 1000 µM (phthalyl amidase [1]; [3]) turn out when `CCN1C(=O)C=CC1=O` [NEM, Nethylmaleimide] was run?
A: 100%

Q: `CCCCCCC(C(=O)O)n1cnc(NC(=O)c2ncccc2C(=O)O)c1` (stereo not shown) [Compound XX] was tested. Which “suitability as substrate (in words)” value (phthalyl amidase [2]) did it give?
A: acceptable

Q: Which “Relative Activity” value (phthalyl amidase [2]; [4]) does the source give for `CCCCCCC(C(=O)O)n1cnc(NC(=O)c2cccc(C(=O)O)c2)c1` (stereo not shown) [XXIV] here?
A: 0

Q: And the “suitability as substrate (in words)” value (phthalyl amidase [2])?
A: completely eliminates hydrolytic activity

Q: `[Cl][Fe]([Cl])[Cl]` [FeCl3] was tested. Which “% of Control Activity” value (phthalyl amidase [1]; [3]) did it give?
A: 96%

Q: With `CCCCCCC(C(=O)O)n1cnc(NC(=O)c2ccccc2)c1` (stereo not shown) [XXVIII] as the compound, how does the “Relative Activity” value (phthalyl amidase [2]; [4]) read?
A: 0

Q: With `CCCCCCC(C(=O)O)n1cnc(NC(=O)c2cc(O)cc(O)c2)c1` (stereo not shown) [XXVII] as the compound, how does the “Relative Activity” value (phthalyl amidase [2]; [4]) read?
A: 0

Q: `OCC(O)CO` [Glycerol] was tested. Which remaining activity at 1 % (phthalyl amidase [1]; 20 min, solvent 1.0%, read-out: % Residual enzyme activity) did it give?
A: 100%

Q: What about the remaining activity at 5 % (phthalyl amidase [1]; 20 min, solvent 5.0%, read-out: % Residual enzyme activity) of the same compound?
A: 94%

Q: And the remaining activity at 10 % (phthalyl amidase [1]; 20 min, solvent 10.0%, read-out: % Residual enzyme activity)?
A: 85%

Q: What about the “% Residual enzyme activity” value (phthalyl amidase [1]; solvent 10.0%) of the same compound?
A: least amount of inhibition

Q: `[Cl][Cu][Cl]` [CuCl2] was tested. Which “effect on enzyme activity (in words)” value (phthalyl amidase [1]; 1 mM unless otherwise indicated, iodoacetic acid 10 mM, listed as Cu^++) did it give?
A: significantly inhibited

Q: What about the “effect on enzyme activity (in words)” value (phthalyl amidase [1]; 1 mM unless otherwise indicated, iodoacetic acid 10 mM, listed as copper ions) of the same compound?
A: significantly reduced

Q: What about the “% of Control Activity” value (phthalyl amidase [1]; [3]) of the same compound?
A: 36%

Q: Which results are given for `CCCCCCC(C(=O)O)n1cnc(NC(=O)c2ccccc2-c2nn[nH]n2)c1` (stereo not shown) [XXII]?
A: Relative Activity (phthalyl amidase [2]; [4]): 0.2; suitability as substrate (in words) (phthalyl amidase [2]): Low levels of hydrolysis

Q: How did the “% of Control Activity” value (phthalyl amidase [1]; [3]) turn out when `[Cl-].[K+]` [KCl] was run?
A: 100%

Q: What does the source list for `CCCCCCC(C(=O)O)n1cnc(NC(=O)c2cccc(O)c2C(=O)O)c1` (stereo not shown) [XXI]?
A: Relative Activity (phthalyl amidase [2]; [4]): 1.3; suitability as substrate (in words) (phthalyl amidase [2]): acceptable

Q: Which “% of Control Activity” value (phthalyl amidase [1]; [3]) does the source give for `[Ca+2].[Cl-].[Cl-]` [CaCl2] here?
A: 89%

Q: How did the remaining activity at 1000 µM (phthalyl amidase [1]; [3]) turn out when `Nc1ncnc2c1ncn2[C@@H]1O[C@H](COP(=O)(O)OP(=O)(O)OP(=O)(O)O)[C@@H](O)[C@H]1O` [ATP, adenosine 5triphosphate] was run?
A: 96%

Q: With `CC(C)(COP(=O)(O)OP(=O)(O)OC[C@H]1O[C@@H](n2cnc3c(N)ncnc32)[C@H](O)[C@@H]1OP(=O)(O)O)[C@@H](O)C(=O)NCCC(=O)NCCS` [CoASH] as the compound, how does the remaining activity at 1000 µM (phthalyl amidase [1]; [3]) read?
A: 102%

Q: How did the “Relative Activity” value (phthalyl amidase [2]; [4]) turn out when `CCCCCCC(C(=O)O)n1cnc(NC(=O)c2cccc(O)c2)c1` (stereo not shown) [XXVI] was run?
A: 0

Q: With `O=C(O)CN(CCN(CC(=O)O)CC(=O)O)CC(=O)O` [EDTA] as the compound, how does the “effect on enzyme activity (in words)” value (phthalyl amidase [1]) read?
A: little or no effect

Q: And the remaining activity at 1000 µM (phthalyl amidase [1])?
A: 103%

Q: `[Cl][Ni][Cl]` [NiCl2] was tested. Which “% of Control Activity” value (phthalyl amidase [1]; [3]) did it give?
A: 94%

Q: With `NC(=O)c1ccc[n+]([C@@H]2O[C@H](COP(=O)([O-])OP(=O)(O)OC[C@H]3O[C@@H](n4cnc5c(N)ncnc54)[C@H](O)[C@@H]3O)[C@@H](O)[C@H]2O)c1` [NAD, nicotinamide adenine nucleotide] as the compound, how does the remaining activity at 1000 µM (phthalyl amidase [1]; [3]) read?
A: 101%

Q: How did the remaining activity at 1000 µM (phthalyl amidase [1]; [3]) turn out when `Cc1cc2nc3c(=O)[nH]c(=O)nc-3n(C[C@H](O)[C@H](O)[C@H](O)COP(=O)(O)OP(=O)(O)OC[C@H]3O[C@@H](n4cnc5c(N)ncnc54)[C@H](O)[C@@H]3O)c2cc1C` [FAD, flavin adenine dinucleotide] was run?
A: 101%

Q: For `O=C(O)CN1C(=O)C(NC(=O)c2ccccc2C(=O)O)C1CCc1ccco1` (stereo not shown) [PMBL], which “effect on wet weight cell mass (in words)” value (Xanthobacter agilis) is on record?
A: no effect

Q: `O=C(O)CN1C(=O)C(NC(=O)c2ccccc2)C1CCc1ccco1` (stereo not shown) [VI] was tested. Which Relative Activity (phthalyl amidase [2]; Table 9 beta-lactams, III = 100, 50 mM phosphate pH 8.0, 30° C.) did it give?
A: 0
